Assay results as given in patent US9840498B2, “Substituted quinazolin-4-one derivatives” (NOVARTIS AG, priority 2013, dated 2017).

How the values were obtained:
[1] = biological target: human phosphoinositide-3 kinase (PI3K) alpha (Homo sapiens (Human), UniProt P42336); test: PI3K-mediated Akt 1/2 (S473) phosphorylation in Rat-1 cells overexpressing PI3K alpha; type: cell-based, rat cells expressing human PI3K alpha; conditions: cellular assay, p-AKT(Ser473), read-out: Cell PI3K alpha IC50
Protocol: (§1) 2.1 Phosphoinositide-3 kinase (PI3K)-Mediated Akt 1/2 (S473) Phosphorylation in Rat-1 Cells
(§2) Rat-1 cells stably overexpressing a myristoylated form of the catalytic subunit of human phosphoinositide-3 kinase (PI3K) alpha, beta or delta were plated in 384-well plates at a density of 7500 (PI3K alpha), 6200 (PI3K beta), or 4000 (PI3K delta) cells in 30 ul complete growth medium (Dulbecco's modified Eagle's medium (DMEM high glucose) supplemented with 10% (v/v) fetal bovine serum, 1% (v/v) MEM non essential amino acids, 10 mM HEPES, 2 mM L-glutamine, 10 μg/mL puromycin and 1% (v/v) Penicillin/Streptomycin) and were incubated at […]/5% CO2/95% humidity for 24 h. Compounds were diluted in 384-well compound plates (compound master plates), to obtain 8-point serial dilutions for 40 test compounds in 90% DMSO, as well as 4 reference compounds plus 16 high controls and 16 low (inhibited) controls. Predilution plates were prepared by dispensing pipetting 250 nl of compound solutions into 384-well polypropylen plates (daugther plates), using a Hummingwell nanoliter dispenser. Compounds were prediluted by the addition of 49.75 ul complete growth medium. 10 ul of prediluted compound solution were transferred to the cell plate using a 384-well pipettor, resulting in a final DMSO concentration of 0.11%. Cells were incubated for 1 h at […]/5% CO2/95% humidity. The supernatant was removed, the cells were lysed in 20 ul of lysis buffer for AlphaScreen® SureFire® detection.
(§3) For detection of p-AKT(Ser473), the SureFire® p-Akt 1/2 (Ser473) Assay Kit (PerkinElmer, U.S.A.) was used. 5 ul of cell lysate was transferred to 384-well low volume Proxiplates for detection using a 384-well pipettor. Addition of AlphaScreen® SureFire® reagents was done according to the manufacturer's protocol. First, 5 ul of reaction buffer plus activation buffer mix containing AlphaScreen® acceptor beads was added, the plate was sealed, and incubated on a plate shaker for 2 hours at room temperature. Second, 2 ul of dilution buffer containing AlphaScreen® donor beads was added, and the plate was incubated on plate shaker as above for a further 2 hours. The plate was read on an AlphaScreen® compatible plate reader, using standard AlphaScreen® settings. Alternatively, p-AKT(Ser473) was detected with the CisBio HTRF Assay Kit: As positive control, 0.9 mM of 1-(3-(trifluoromethyl)-4-(piperazin-1-yl)phenyl)-8-(6-methoxypyridin-3-yl)-3-methyl-1H-imidazo[4,5-c]quinolin-2(3H)-one maleic acid salt in 90% (v/v) DMSO was added to the compound master plate. For compound testing, the cells were seeded at a density of 4000 (Rat-1_PI3Kdelta), 8000 (Rat-1_PI3Kalpha), or 6500 (Rat-1_PI3Kbeta) cells in 30 ul complete growth medium into 384-well plates, with a plastic surface promoting the adhesion of cells and their growth (assay plates) and were grown at 37° C./5% CO2/90% humidity for 24 h. Some 10 ul of the compound predilutions from the daughter plate were then transferred to the cells. After treatment with compound for 1 h, medium was removed and cells were lysed by the addition of 20 ul lysis buffer supplemented with blocking buffer. Detection of p-AKT(Ser473) was performed with the HTRF pAKT (Ser473) assay kit according to the manufacturer's instructions using 16 ul of cell lysate in a total detection volume of 20 ul.

[2] = biological target: human phosphoinositide-3 kinase (PI3K) delta (Homo sapiens (Human), UniProt O00329); test: PI3K-mediated Akt 1/2 (S473) phosphorylation in Rat-1 cells overexpressing PI3K delta; type: cell-based; conditions: cellular assay, p-AKT(Ser473), read-out: Cell PI3K delta IC50
Protocol: as §1, §2, §3

Chain of human phosphoinositide-3 kinase (PI3K) delta (O00329 whole entry): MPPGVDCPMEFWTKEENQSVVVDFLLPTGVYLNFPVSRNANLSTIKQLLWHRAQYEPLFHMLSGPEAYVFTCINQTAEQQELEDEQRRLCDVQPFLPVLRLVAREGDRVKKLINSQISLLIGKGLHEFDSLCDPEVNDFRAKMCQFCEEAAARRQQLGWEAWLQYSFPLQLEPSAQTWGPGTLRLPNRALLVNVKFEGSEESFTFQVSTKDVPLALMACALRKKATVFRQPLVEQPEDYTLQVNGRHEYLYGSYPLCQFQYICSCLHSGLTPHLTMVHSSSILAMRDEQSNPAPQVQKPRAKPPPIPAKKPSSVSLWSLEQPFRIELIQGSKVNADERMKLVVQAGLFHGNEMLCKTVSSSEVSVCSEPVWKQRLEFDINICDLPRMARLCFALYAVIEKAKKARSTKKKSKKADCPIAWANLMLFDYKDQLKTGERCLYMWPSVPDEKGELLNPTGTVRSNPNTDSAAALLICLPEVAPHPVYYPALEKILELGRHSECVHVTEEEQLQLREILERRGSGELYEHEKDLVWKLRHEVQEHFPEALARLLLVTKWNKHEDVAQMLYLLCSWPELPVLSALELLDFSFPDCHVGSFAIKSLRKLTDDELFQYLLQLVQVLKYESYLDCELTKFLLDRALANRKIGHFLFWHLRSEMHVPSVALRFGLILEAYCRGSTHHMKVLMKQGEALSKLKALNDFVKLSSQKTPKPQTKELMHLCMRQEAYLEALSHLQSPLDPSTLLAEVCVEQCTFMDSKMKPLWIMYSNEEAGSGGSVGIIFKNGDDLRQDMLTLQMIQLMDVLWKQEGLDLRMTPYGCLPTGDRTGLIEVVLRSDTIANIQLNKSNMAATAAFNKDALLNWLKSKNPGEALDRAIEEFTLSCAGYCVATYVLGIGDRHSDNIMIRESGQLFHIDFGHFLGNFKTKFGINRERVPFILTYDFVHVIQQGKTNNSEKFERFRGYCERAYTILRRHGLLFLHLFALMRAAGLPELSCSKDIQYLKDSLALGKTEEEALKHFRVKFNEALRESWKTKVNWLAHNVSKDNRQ
Chain of human phosphoinositide-3 kinase (PI3K) delta (Q63787 whole entry partner): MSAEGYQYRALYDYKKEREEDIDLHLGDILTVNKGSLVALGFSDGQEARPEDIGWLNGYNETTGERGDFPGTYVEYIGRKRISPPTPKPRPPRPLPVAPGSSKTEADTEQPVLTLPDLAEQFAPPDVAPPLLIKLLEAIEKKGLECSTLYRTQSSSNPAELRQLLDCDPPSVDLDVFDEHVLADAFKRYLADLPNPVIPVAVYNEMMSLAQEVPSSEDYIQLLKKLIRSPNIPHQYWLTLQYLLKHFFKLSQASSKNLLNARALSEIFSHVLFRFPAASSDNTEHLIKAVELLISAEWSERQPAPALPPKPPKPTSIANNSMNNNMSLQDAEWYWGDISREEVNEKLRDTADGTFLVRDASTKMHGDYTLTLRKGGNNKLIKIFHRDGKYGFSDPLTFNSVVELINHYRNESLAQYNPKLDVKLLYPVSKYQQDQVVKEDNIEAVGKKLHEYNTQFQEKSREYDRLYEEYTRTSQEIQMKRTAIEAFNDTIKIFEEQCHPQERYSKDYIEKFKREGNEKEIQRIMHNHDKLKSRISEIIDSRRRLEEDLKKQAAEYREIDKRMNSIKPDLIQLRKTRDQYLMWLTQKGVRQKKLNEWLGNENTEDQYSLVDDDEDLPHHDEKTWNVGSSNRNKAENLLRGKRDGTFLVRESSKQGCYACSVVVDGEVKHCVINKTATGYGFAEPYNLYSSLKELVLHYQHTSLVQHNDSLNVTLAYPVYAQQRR
Chain of human phosphoinositide-3 kinase (PI3K) alpha (P42336 whole entry): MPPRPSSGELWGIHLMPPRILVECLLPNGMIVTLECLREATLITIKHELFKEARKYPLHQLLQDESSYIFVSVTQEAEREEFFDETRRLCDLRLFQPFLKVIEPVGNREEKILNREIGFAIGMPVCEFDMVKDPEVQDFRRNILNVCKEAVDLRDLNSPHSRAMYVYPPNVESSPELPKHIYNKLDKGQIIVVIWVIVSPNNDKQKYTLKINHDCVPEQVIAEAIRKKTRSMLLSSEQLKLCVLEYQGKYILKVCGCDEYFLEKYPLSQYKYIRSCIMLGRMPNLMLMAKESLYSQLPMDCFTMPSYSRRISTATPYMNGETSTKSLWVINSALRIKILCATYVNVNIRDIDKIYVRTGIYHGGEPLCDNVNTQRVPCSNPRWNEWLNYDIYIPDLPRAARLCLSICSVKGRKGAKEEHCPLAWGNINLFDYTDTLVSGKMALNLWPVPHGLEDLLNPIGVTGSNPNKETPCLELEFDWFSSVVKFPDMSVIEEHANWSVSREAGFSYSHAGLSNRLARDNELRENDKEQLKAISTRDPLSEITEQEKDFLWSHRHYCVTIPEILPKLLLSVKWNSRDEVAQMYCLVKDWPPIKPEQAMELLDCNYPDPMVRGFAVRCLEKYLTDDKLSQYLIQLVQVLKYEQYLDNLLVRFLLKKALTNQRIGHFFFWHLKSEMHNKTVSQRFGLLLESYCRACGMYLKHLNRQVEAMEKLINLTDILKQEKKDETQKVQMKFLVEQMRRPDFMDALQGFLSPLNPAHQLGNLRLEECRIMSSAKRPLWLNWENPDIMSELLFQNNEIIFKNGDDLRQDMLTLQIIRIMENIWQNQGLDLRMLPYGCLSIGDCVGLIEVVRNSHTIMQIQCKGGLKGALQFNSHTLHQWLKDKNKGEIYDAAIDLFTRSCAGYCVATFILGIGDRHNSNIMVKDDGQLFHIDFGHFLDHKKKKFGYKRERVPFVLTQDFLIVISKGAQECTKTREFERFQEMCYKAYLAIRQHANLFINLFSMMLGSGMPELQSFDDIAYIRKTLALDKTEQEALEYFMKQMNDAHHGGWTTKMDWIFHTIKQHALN
Chain of human phosphoinositide-3 kinase (PI3K) alpha (Q63787 whole entry partner): as the sequence (Q63787 whole entry partner) above

| IC50 [1] [nM] | IC50 [2] [nM] | SMILES |
| --- | --- | --- |
| 2200 | 3 | Cc1nc(N)nc(N2C[C@@H](O)C[C@H]2c2nc3ccc(F)c(-c4cnn(C)c4)c3c(=O)n2-c2ccccc2)c1C#N [Example 1, 2-Amino-4-((2S,4S)-2-(6-fluoro-5-(1-methyl-1H-pyrazol-4-yl)-4-oxo-3-phenyl-3,4-dihydroquinazolin-2-yl)-4-hydroxypyrrolidin-1-yl)-6-methylpyrimidine-5-carbonitrile] |
| 1300 | 3 | Cn1cc(-c2cccc3nc([C@@H]4CCCN4c4ncnc(N)c4C#N)n(-c4ccccc4)c(=O)c23)cn1 [Example 2, (S)-4-Amino-6-(2-(5-(1-methyl-1H-pyrazol-4-yl)-4-oxo-3-phenyl-3,4-dihydroquinazolin-2-yl)pyrrolidin-1-yl)pyrimidine-5-carbonitrile] |
| 6800 | 11 | COc1ncc(-c2cccc3nc([C@@H]4CCCN4c4ncnc(N)c4C#N)n(-c4ccccc4)c(=O)c23)cn1 [Example 3, (S)-4-Amino-6-(2-(5-(2-methoxypyrimidin-5-yl)-4-oxo-3-phenyl-3,4-dihydroquinazolin-2-yl)pyrrolidin-1-yl)pyrimidine-5-carbonitrile] |
| 2800 | < 3 | COc1ncc(-c2cccc3nc([C@@H]4CCCN4c4nc(N)nc(C)c4C#N)n(-c4ccccc4)c(=O)c23)cn1 [Example 4, (S)-2-Amino-4-(2-(5-(2-methoxypyrimidin-5-yl)-4-oxo-3-phenyl-3,4-dihydroquinazolin-2-yl)pyrrolidin-1-yl)-6-methylpyrimidine-5-carbonitrile] |
| 3000 | 7 | Cn1cc(-c2c(F)ccc3nc([C@@H]4CCCN4c4ncnc(N)c4C#N)n(-c4ccccc4)c(=O)c23)cn1 [Example 5, (S)-4-Amino-6-(2-(6-fluoro-5-(1-methyl-1H-pyrazol-4-yl)-4-oxo-3-phenyl-3,4-dihydroquinazolin-2-yl)pyrrolidin-1-yl)pyrimidine-5-carbonitrile] |
| 1400 | 5 | Cc1nc(N)nc(N2CCC[C@H]2c2nc3ccc(F)c(-c4cnn(C)c4)c3c(=O)n2-c2ccccc2)c1C#N [Example 6, (S)-2-Amino-4-(2-(6-fluoro-5-(1-methyl-1H-pyrazol-4-yl)-4-oxo-3-phenyl-3,4-dihydroquinazolin-2-yl)pyrrolidin-1-yl)-6-methylpyrimidine-5-carbonitrile] |
| 4700 | 9 | COc1ncc(-c2c(F)ccc3nc([C@@H]4C[C@H](O)CN4c4nc(N)nc(C)c4C#N)n(-c4ccccc4)c(=O)c23)cn1 [Example 7, 2-Amino-4-((2S,4S)-2-(6-fluoro-5-(2-methoxypyrimidin-5-yl)-4-oxo-3-phenyl-3,4-dihydroquinazolin-2-yl)-4-hydroxypyrrolidin-1-yl)-6-methylpyrimidine-5-carbonitrile] |
| 3200 | 6 | Cn1cc(-c2c(F)ccc3nc([C@@H]4C[C@H](O)CN4c4ncnc(N)c4C#N)n(-c4ccccc4)c(=O)c23)cn1 [Example 8, 4-Amino-6-((2S,4S)-2-(6-fluoro-5-(1-methyl-1H-pyrazol-4-yl)-4-oxo-3-phenyl-3,4-dihydroquinazolin-2-yl)-4-hydroxypyrrolidin-1-yl) pyrimidine-5-carbonitrile] |
| 670 | < 3 | COc1ncc(-c2c(F)ccc3nc([C@@H]4C[C@H](O)CN4c4nc(N)nc(C)c4C#N)n(-c4ccccc4)c(=O)c23)s1 [Example 9, 2-Amino-4-((2S,4S)-2-(6-fluoro-5-(2-methoxythiazol-5-yl)-4-oxo-3-phenyl-3,4-dihydroquinazolin-2-yl)-4-hydroxypyrrolidin-1-yl)-6-methylpyrimidine-5-carbonitrile] |
| 3900 | 60 | CO[C@H]1C[C@@H](c2nc3cccc(-c4cnn(C)c4)c3c(=O)n2-c2ccccc2)N(c2nc(N)nc(C)c2C#N)C1 [Example 10, 2-Amino-4-((2S,4S)-4-methoxy-2-(5-(1-methyl-1H-pyrazol-4-yl)-4-oxo-3-phenyl-3,4-dihydroquinazolin-2-yl)pyrrolidin-1-yl)-6-methylpyrimidine-5-carbonitrile] |
